Common to all, as to type: cell-based
In test [1] the test system is Aspergillus niger, ATCC 16404. The test can be described thus: Fungal test, inhibition halo in Petri dish with central well. The note with it: tests with well, 25° C. As for the experimental part: (§1) A study about the efficacy of the composition of the present invention to some fungi was conducted. The compositions were tested according to the MIC method. The methodology being used is herein reported.
(§2) The tested fungi strains were as follows: i) Aspergillus niger, ATCC 16404; ii) Trichoderma viride, ATCC 28020; iii) Penicillium funiculosum ATCC 9644 and iv) Chaetomium globosum, ATCC 16021.
(§3) For each strain, time by time, a culture in liquid nutrient medium such as SABORAUD DEXEROSE AGAR was made.
(§4) Freshly-made subcultures were created, and incubated until obtaining an estimated density of […]. The estimate was obtained by spectrophotometric measurement of absorption at 530 nm.
(§5) Bacteriostatic tests: The tests were performed by placing fungal culture aliquots (set forth in the tables below) in Petri dishes with a central well (1 centimeter diameter) in which the product to be tested was poured. All the plates were incubated at 25° C. The incubation time for solutions A, B, C, D, E and F was 72 hours, while for products. M1, M2 and M3 the time was 30 hours.
(§6) The results are expressed as inhibition halo diameter being measured over each plate. […] Consequently, a 0 mm diameter denotes an undetectable halo. The described values indicate the average from the minimum and maximum values of halos for each test. Values are expressed in mm of inhibition.

Test [2] has as its system Chaetomium globosum, ATCC 16021. The description is as above. Conditions: tests with well, 25° C. As for the experimental part:
as §1, §2, §3, §4, §5, §6

In test [3] the test system is Penicillium funiculosum ATCC 9644. The test is described as above. The note with it: tests with well, 25° C. As for the experimental part: as §1, §2, §3, §4, §5, §6
In test [4] the test system is Trichoderma viride, ATCC 28020. The test is described as above. Conditions: tests with well, 25° C. On the procedure: as §1, §2, §3, §4, §5, §6
In the next test the test system is fungi. The test can be described thus: Fungal tests, overall conclusion versus fluconazole. The note with it: 0.07 mg versus 2 mg (about 1:28 ratio); alone or combined with each other. As for the experimental part:
as §1, §2, §5, §6

For test [5], the system named is Escherichia coli ATCC 25922. The test can be described thus: Bacteriostatic test, inhibition halo in Petri dish with central well. The note with it: 2 cc of a 0.7% solution equal to 35 mg, diameter does not include the 10 mm central well. As for the experimental part:
(§7) A study about the efficacy of a gascardic acid-based composition referred to as M3 was conducted against some publicly available pathogenic bacteria such as (1) Staphylococcus aureus—ATCC 25923 (190×10^6 UFC/ml) (2) Pseudomonas aeruginosa—ATCC 15442 (305×10^6 UFC/ml) and (3) Escherichia coli—ATCC 25922 (300×10^6 UFC/ml). The composition M3 was tested according to MIC method.
(§8) The method was carried out as follows. Time by time, a culture of the above-mentioned strains was prepared in a Tryptic soy Agar type growth medium. Freshly-made subcultures were prepared, and incubated until obtaining an estimated density of 1×10^6 cells per ml of culture. The assessment was obtained by spectrophotometric measurement of absorption at known wavelengths.
(§9) The bacteriostatic tests were performed by placing the bacterial culture in Petri dishes with a central well of 1 cm diameter, containing the 2 cc aliquot of composition M3. Then, the freshly-made subculture was plated over the surrounding medium. Next, the Petri dishes were placed in a thermostatic environment at 30° C. and examined after 24 and 48 ore.
(§10) The results are expressed as inhibition halo diameter measured over each Petri dish. […] Consequently, a zero mm (0 mm) diameter denotes an undetectable halo. The given average values are obtained by considering the minimum and maximum value of each halo.
(§11) According to the above-described MIC method, a test where the pathogenic bacteria (1) Staphylococcus aureus ATCC 25923 (2) Pseudomonas aeruginosa ATCC 15442 and (3) Escherichia coli ATCC 25922 were tested along using composition M5 and composition M5+M3 was conducted.

Test [6] concerns Pseudomonas aeruginosa ATCC 15442. Described as above. Conditions: 2 cc of a 0.7% solution equal to 35 mg, diameter does not include the 10 mm central well. On the procedure:
as §7, §8, §9, §10, §11

In test [7] the test system is Staphylococcus aureus ATCC 25923. Described as above. The note with it: 2 cc of a 0.7% solution equal to 35 mg, diameter does not include the 10 mm central well. As for the experimental part:
as §7, §8, §9, §10, §11

[8] abbreviates: incubation 30 hours, 1 cc (0.07 mg of compound).
[9] abbreviates: incubation 72 hours, 1 cc per plate.

With `C[C@H]1C(=O)CC[C@@H]2[C@]1(C)CC[C@H]1[C@@]2(C)CC[C@@]2(C)[C@@H]3CC(C)(C)CC[C@]3(C)CC[C@]12C` [Test M2, Fridelin], the “mm of inhibition (inhibition halo diameter)” value (shortened to “mm of inhibition”) is on record as 3-4 mm in test [1] (setting [8]), 5-11 (*) mm in test [2] (setting [8]), 1-1.5 mm in test [3] (setting [8]) and 2-6 mm in test [4] (setting [8]). Further, in the test on fungi, the “fungicidal activity compared with M4 (fluconazole)” value was “strong fungicidal activity than M4”.

For `OC(Cn1cncn1)(Cn1cncn1)c1ccc(F)cc1F` [Test A, Fluconazole, reference compound], the “mm of inhibition” value in test [1] (setting [9]) was 1 mm; in test [2] (setting [9]) it was 11-17 mm; in test [3] (setting [9]), 0 mm; in test [4] (setting [9]), 0 mm.

For the molecule `C=C(C)[C@@H]1CC[C@]2(C(=O)O)CC[C@]3(C)[C@H](CC[C@@H]4[C@@]5(C)CC[C@H](O)C(C)(C)[C@@H]5CC[C@]43C)[C@@H]12` [Test M1, Betulinic acid], the “mm of inhibition” value in test [1] (setting [8]) is recorded as 15-16 mm; in test [2] (setting [8]), 22-26 mm; in test [3] (setting [8]), 12-18 (*) mm; in test [4] (setting [8]) it was 31-34 (*) mm.

In the case of Gascardic acid [Test M3], the “Halo in mm (inhibition halo diameter)” value in test [5] is recorded as 6 mm; in test [6] it was 6 mm; in test [7] it was 8 mm. The “mm of inhibition” value in test [1] (setting [8]) was 15-18 mm; in test [2] (setting [8]), 19-26 mm; in test [3] (setting [8]) it was 15-20 (*) mm; in test [4] (setting [8]), 16-27 mm. Also, in the test with fungi, the “fungicidal activity compared with M4 (fluconazole)” value was “strong fungicidal activity than M4”.

(Values after US9775348B2, “Composition comprising a sesterterpene and use thereof as antibiotic and antifungal adjuvant” (RODE PHARMA S.R.L., priority 2012, dated 2017).)
